Blank lines part the entries; values can stand above or below the compound they belong to.
What was measured:
[1] = system: HepG2 transplanted tumor (inoculated tumor tissue pieces); test: In vivo antitumor testing, second and third experiments (Animal Model 2); design: species or system BALB/c nude mice; conditions: second experiment
Method: The establishment of Animal Model 2 is described below. Male BALB/c nude mice (5 to 6 weeks of age, a body weight of 15 to 16 g, certificate number: SCXK (Hu) 2012-0002) were purchased from Shanghai Silaike Experiment Animal Co., Ltd and were acclimatized for one week. A cell suspension of HepG2 cells having a concentration of 1×10^7 cells/mL was prepared using the same method as that for preparing the cell suspension for Animal Model 1. 0.2 mL of the cell suspension was subcutaneously injected into the back of each of 5 nude mice. […] Tea Product 1 and Conventional Tea Product obtained in section A of Example 3, as well as 5-fluorouracil mentioned in section B of Example 3, were examined for their in vivo antitumor activity. […] In the third experiment, nude mice of Animal Model 2 were divided into three groups, i.e. a control group (n=11), a Tea Product 1 group (n=11), and a Conventional Tea Product group (n=8). […] In all the three experiments above, each of the nude mice was sacrificed 24 hours after the termination of the treatment. The tumor was collected and weighed. The antitumor effect of a respective test substance was evaluated by virtue of the percent tumor growth inhibition (%), which was calculated using the following Equation II: E=[(F−G)/(F)]×100% (I) • E=percent tumor growth inhibition (%) • F=tumor weight of control group • G=tumor weight of respective test substance group The experimental data are expressed as mean±SEM (standard error of the mean). The experimental data were subjected to one-way analysis of variance (ANOVA) using SPSS (Statistical Package for Social Sciences) software package version 11.5, such that the difference between the groups could be evaluated. The data regarding the tumor weights of the groups were subjected to t-test. Statistical significance is indicated by p<0.05.

[2] = system: human lung cancer cell line A549; test: In vitro antitumor/anticancer testing (CCK-8), A549; assay type: cell-based; conditions: 48 h
Method: (§1) Each of Tea Product 1 and Conventional Tea Product obtained in section A of this example was used to prepare test tea samples according to the method described below. A proper amount of the respective tea product was added into sterile water to prepare a stock solution with a concentration of 100 mg/mL, followed by using a membrane filter with a pore size of 0.22 μm to conduct vacuum filtration and sterilization. The resulting stock solution was diluted with a respective complete medium shown in Table 3 below to form test tea samples with different concentrations. In other words, the thus obtained test tea samples to be used for treating a respective cancer/tumor cell line shown in Table 3 were prepared using the same complete medium as that for the respective cancer/tumor cell line. […] Specifically, each of the aforesaid commercially available agents was subjected to the method described below to prepare comparative test samples. A proper amount of a respective commercially available agent was dissolved in phosphate-buffered saline (PBS) to prepare a stock solution with a concentration of 5 mg/mL, followed by using a membrane filter with a pore size of 0.22 μm to conduct vacuum filtration and sterilization. The resulting stock solution was diluted with a respective complete medium shown in Table 3 below to form comparative test samples with different concentrations. To be specific, the comparative test samples prepared from the respective commercially available agent have the concentrations shown in Table 2 below. The thus obtained comparative test samples to be used for treating a respective cancer/tumor cell line shown in Table 3 were prepared using the same complete medium as that for the respective cancer/tumor cell line. […] The cultivation of each cancer/tumor cell line is described as follows. […] Afterwards, a cell suspension having a cell density of 1.0×10^4 cells/mL was prepared. […] As experimental groups, the tumor/cancer cells of each cell line were treated with the test tea samples prepared from one or more of the tea products and the comparative test samples prepared from one or more of the commercially available agents as obtained in section B of this example (for more detailed information about the tea product(s) and the commercially available product (s) used to treat each cell line, please see Table 4 below). To be specific, 6 to 10 test tea samples prepared from the same tea product and having different concentrations, as well as 6 to 10 comparative test samples prepared from the same commercially available agent and having different concentrations, were utilized to treat the tumor/cancer cells of each cell line. For each experimental group, 6 repetitions of tumor/cancer treatment were performed. For the control group, 100 μL of PBS was added to a well containing the medium and the cancer/tumor cells of the respective cell line. For the blank group, 100 μL of PBS was added to a well containing a complete medium the same as that used for cultivation of the cancer/tumor cells of the respective cell line. After the treatment described above, cultivation was conducted in an incubator (37° C., 100% relative humidity, 5% CO2) for 48 hours. Subsequently, the liquid containing the medium and the sample in the well was removed, and a respective complete medium (shown in Table 3 above) containing 10% CCK-8 (Cell Counting Kit-8)(Dojindo Molecular Technologies, Inc., Cat. No. CK04-13) was added. Cultivation was performed in an incubator (37° C.) for 2 to 4 hours, followed by gently shaking.

[3] = system: human leukemia cell line HL-60; test: In vitro antitumor/anticancer testing (CCK-8), HL-60; assay type: cell-based; conditions: 48 h
Method: as §1

[4] = 35 days, 5-fluorouracil 15.0 mg/kg per day intra-abdominal injection, Tea Product 1 0.6 mL of 10% per day intragastric gavage

Structure (SMILES): O=c1[nH]cc(F)c(=O)[nH]1 [5-fluorouracil]
Body weight Before treatment ([1]; Animal Model 2, baseline): 17.22 g
Body weight After treatment [1, 4]: 24.32 g
Percent tumor growth inhibition [1, 4]: 48.96%
Tumor weight [1, 4]: 0.034 g

IC50 ([2]; A549): IC50 (μg/mL) = 59.74
IC50 ([3]; HL-60): IC50 (μg/mL) = 44.96
Structure (SMILES): O=C(O[C@@H]1Cc2c(O)cc(O)cc2O[C@@H]1c1cc(O)c(O)c(O)c1)c1cc(O)c(O)c(O)c1 [EGCG monomer, epigallocatechin gallate]
Percent growth inhibition ([2]; 0.625 μg/mL): 6.69%
Percent growth inhibition ([2]; 1.25 μg/mL): 5.92%
Percent growth inhibition ([2]; 2.5 μg/mL): 7.35%
Percent growth inhibition ([2]; 5 μg/mL): 6.76%
Percent growth inhibition ([2]; 10 μg/mL): 9.62%
Percent growth inhibition ([2]; 20 μg/mL): 23.21%
Percent growth inhibition ([2]; 40 μg/mL): 35.39%
Percent growth inhibition ([2]; 80 μg/mL): 60.18%
Percent growth inhibition ([3]; 2.5 μg/mL): 5.10%
Percent growth inhibition ([3]; 5 μg/mL): 12.43%
Percent growth inhibition ([3]; 10 μg/mL): 16.22%
Percent growth inhibition ([3]; 20 μg/mL): 27.14%
Percent growth inhibition ([3]; 40 μg/mL): 44.21%
Percent growth inhibition ([3]; 80 μg/mL): 76.96%
Percent growth inhibition ([3]; 160 μg/mL): 73.03%
Percent growth inhibition ([3]; 320 μg/mL): 83.90%
Percent growth inhibition ([3]; 640 μg/mL): 91.13%
